In publication PMC8777785, “Antimicrobial Activity of Snake β-Defensins and Derived Peptides” (Toxins, 2021):
Converted amounts (≈) assume the structure as drawn. Residues, ends and D or L forms follow the SMILES beside them.

Assays:
[1] = system: Klebsiella pneumonia; test: Microbroth dilution assay, MIC; type: cell-based, Klebsiella pneumoniae; conditions: short derived peptides, 2.75 to 700 µg/mL, overnight 37 °C, read at 600 nm, three independent experiments
Protocol: (§1) The β-defensins were tested using a microbroth dilution assay. It consists of incubating the bacteria (4.105 colony-forming unit—CFU/mL) and the peptide (from 1 to 512 µg/mL) in liquid broth. After the incubation at 37 °C during the night, the bacterial growth was detected by spectrophotometry at 600 nm. If the measure is similar to the broth, it […]. […] The β-defensins were tested against B. jararaca oral flora because it would be of biological and medical interest. In addition, we tested on E. coli ATCC 25922 and M. luteus that are common Gram-negative and Gram-positive bacteria used in antibacterial tests.
(§2) The antibacterial activity of the alkylated peptides was tested against Gram-negative (G−) bacteria (Klebsiella pneumonia, Serratia marcescens, Morganella morganii, Providencia rettgeri, Citrobacter freundii, Escherichia coli ATCC 25922 and Gram-positive (G+) bacteria (Micrococcus luteus A270 and Staphylococcus aureus) using microbroth assay. In a 96-well plate, 90 µL of 10% tryptone soy broth (TSB) with 4 × 10^5 colony-forming unit (CFU/mL) were mixed with serial twofold dilutions of β-defensins duplicate in concentrations from 512 to 1 µg/mL. The derived peptides coded as PS1, PS2, PS3, PS5, and PS6 (Table 1) were tested against these bacteria in serial twofold dilutions with concentrations bellow 700 µg/mL. After overnight incubation at 37 °C, the turbidity of the bacterial culture was read at 600 nm (Epoch microplate reader, Biotek). The minimal inhibitory concentration (MIC) of each peptide was determined as the lowest concentration that results in no visible bacterial growth. The MIC resulted from three independent experiments. The bacteria K. pneumonia, S. marcescens, M. morganii, P. rettgeri, C. freundii, M. luteus A270 and S. aureus were isolated from Bothrops jararaca buccal flora and kindly provided by Dr. Márcia R. Franzolin (Laboratory of Bacteriology—Instituto Butantan). M. luteus was kindly provided by Dr. Pedro I. da Silva Jr. (Laboratory of Applied Toxinology—Instituto Butantan).

[2] = system: Citrobacter freundii; test: Microbroth dilution assay, MIC; type: cell-based; conditions: overnight 37 °C, read at 600 nm, three independent experiments
Protocol: as §1, §2

[3] = system: Micrococcus luteus A270; test: Microbroth dilution assay, MIC; type: cell-based; conditions: overnight 37 °C, read at 600 nm, three independent experiments
Protocol: as §1, §2

[4] = system: Staphylococcus aureus; test: Microbroth dilution assay, MIC; type: cell-based; conditions: overnight 37 °C, read at 600 nm, three independent experiments
Protocol: as §1, §2

[5] = system: Escherichia coli ATCC 25922; test: Microbroth dilution assay, MIC; type: cell-based; conditions: overnight 37 °C, read at 600 nm, three independent experiments
Protocol: as §1, §2

[6] = system: Trichophyton rubrum (IOC 4527); test: Resazurin microtiter assay plate, antifungal MIC90; type: cell-based; conditions: resazurin colour change, RPMI 1640, 1 to 250 μM, 28 °C, 24–72 h; three independent experiments
Protocol: (§3) The derived peptides were also tested against fungi species using the classical resazurin microtiter assay plate method. It is based on the color change of the rezazurin dye that in blue indicates the absence of growth in at least 90%, and pink refers to microorganism growth. MIC is determined as the minimal concentration of the sample that can prevent the color change from blue to pink and refers to the inhibition of 90% of microorganisms.
(§4) The antifungal activity was evaluated by the microdilution assay as previously described on clinical strains of Candida albicans (IOC 4525), Cryptococcus neoformans (IOC 4528), Trichophyton rubrum (IOC 4527) and Aspergillus fumigatus (IOC 4526). The fungi were cultivated in potato dextrose agar at 28 °C according to the Clinical and Laboratory Standards Institute recommendations. Fungal suspensions were prepared in RPMI 1640 culture media; the CFU/mL was adjusted to 0.5–2.5 × 10^3 for yeasts (C. albicans and C. neoformans) and 0.4–5 × 10^4 CFU/mL for filamentous fungi (T. rubrum e A. fumigatus), by comparison with a standard curve previously stablished in our laboratory.
(§5) The peptides PS1, PS2, PS, PS3, PS4, PS5 and PS6 at 1 mM in acetic acid at 0.01% were diluted in RPMI 1640 culture media at concentrations ranging from 1 to 250 μM. Amphotericin B (AMB) at concentrations below 15 μg/mL (16 μM) and acetic acid from 0.0002 to 0.0025% was used as control.
(§6) The fungi suspensions were added to a 96 well plate (100 µL/well) and the samples (100 µL) in different concentrations were added to each well. The plate was incubated at 28 °C for 24–72 h, and 24 h before the end of the assay 25 µL of the rezazurin dye at 0.02% were added to each well. The minimal inhibitory concentration (MIC90) was defined as the lowest concentration that prevents the rezazurin’s change in color from blue to pink due to the inhibition of at least 90% of the microorganism’s growth. The assays were performed in three independent experiments.

[7] = system: Cryptococcus neoformans (IOC 4528); test: Resazurin microtiter assay plate, antifungal MIC90; type: cell-based; conditions: resazurin colour change, RPMI 1640, 1 to 250 μM, 28 °C, 24–72 h; three independent experiments
Protocol: as §3, §4, §5, §6

[8] = system: Aspergillus fumigatus (IOC 4526); test: Resazurin microtiter assay plate, antifungal MIC90; type: cell-based; conditions: resazurin colour change, RPMI 1640, 1 to 250 μM, 28 °C, 24–72 h; three independent experiments
Protocol: as §3, §4, §5, §6

[9] = system: Candida albicans (IOC 4525); test: Resazurin microtiter assay plate, antifungal MIC90; type: cell-based; conditions: resazurin colour change, RPMI 1640, 1 to 250 μM, 28 °C, 24–72 h; three independent experiments
Protocol: as §3, §4, §5, §6

[10] = short derived peptides, 2.75 to 700 µg/mL
[11] = snake β-defensins, linear (alkylated) except native crotamine, 10% TSB, 4 × 10^5 CFU/mL, 512 to 1 µg/mL

| Compound | MIC, K. pneumoniae [1] | MIC, C. freundii [2, 10] | MIC, M. luteus [3, 10] | MIC, S. aureus [4, 10] | MIC, E. coli [5, 10] | MIC90, Trichophyton rubrum [6] | MIC90, Cryptococcus neoformans [7] | MIC90, Aspergillus fumigatus [8] | MIC90, Candida albicans [9] | MIC, C. freundii [2, 11] | MIC, M. luteus [3, 11] | MIC, S. aureus [4, 11] | MIC, E. coli [5, 11] |
| --- | --- | --- | --- | --- | --- | --- | --- | --- | --- | --- | --- | --- | --- |
| N=C(N)NCCC[C@H](NC(=O)[C@H](Cc1c[nH]c2ccccc12)NC(=O)[C@H](CCCNC(=N)N)NC(=O)[C@@H](N)CO)C(=O)N[C@@H](Cc1c[nH]c2ccccc12)C(=O)N[C@@H](CCCCN)C(=O)N[C@@H](CO)C(=O)N[C@@H](CO)C(=O)N[C@@H](CCCCN)C(=O)N[C@@H](CCCCN)C(=O)NCC(=O)N[C@@H](CO)C(=O)NCC(=O)O [PS1] (H-SRWRWKSSKKGSG-OH) | >452 µM | 113 µM (≈ 175 µg/mL) | 28.4 µM (≈ 44 µg/mL) | 56.5 µM (≈ 87.6 µg/mL) | 56.5 µM (≈ 87.6 µg/mL) | >250 µM | >250 µM | >250 µM | >250 µM | – | – | – | – |
| QPECCQEGGICHSKQCPLGYSSLGRLDCQLGQRCCIRIFGK [DefbBn02, synthetic β-defensin deduced from B. neuwiedi gene, GenBank KC117169] | – | – | – | – | – | – | – | – | – | >113 µM | >113 µM | >113 µM | >113 µM |
| QEWCRGLGGFCSFYQCRPGHDLGPQDCWPERRCCRWGK [DefbLm01, synthetic β-defensin deduced from L. muta gene, GenBank KC117171] | – | – | – | – | – | – | – | – | – | >113 µM | 28.4 µM | >113 µM | >113 µM |
| QRICLGGRGFCHSTPCPRSTIDYGKKDCWGSLRCCEPKRPGK [DefbPm, synthetic β-defensin deduced from P. mertensis gene, GenBank KX664436] | – | – | – | – | – | – | – | – | – | >109 µM | 6.8 µM | >109 µM | >109 µM |
| N=C(N)NCCC[C@H](NC(=O)CNC(=O)[C@@H]1CCCN1C(=O)CNC(=O)[C@@H](N)CO)C(=O)N[C@@H](CCCNC(=N)N)C(=O)N[C@@H](CO)C(=O)N[C@@H](CO)C(=O)N[C@@H](CCCNC(=N)N)C(=O)N[C@@H](CCCNC(=N)N)C(=O)N[C@@H](CCCNC(=N)N)C(=O)N[C@@H](CCCCN)C(=O)O [PS3] (H-SGPGRRSSRRRK-OH) | >500 µM | >500 µM | 31.5 µM (≈ 44.1 µg/mL) | 125 µM (≈ 175 µg/mL) | >500 µM | >250 µM | >250 µM | >250 µM | >250 µM | – | – | – | – |
| QPECLRQGGMCRPRLCPYVSLGQLDCQNGHVCCRKKPRK [DefbBd03, synthetic β-defensin deduced from B. diporus gene, GenBank KC117160] | – | – | – | – | – | – | – | – | – | >115 µM | 0.9 µM | >115 µM | >115 µM |
| QEECLQQGGFCRLIRCPFGYDSLEQQDCRKGQRCCIRKPRK [DefbBj01, synthetic β-defensin deduced from B. jararaca gene, GenBank KC117163] | – | – | – | – | – | – | – | – | – | >105 µM | 3.2 µM | >105 µM | >105 µM |
| QRRCHQKGGMCLPGPCPPGYDSLGQQDCRRGQKCCIKRFGK [DefbBju01, synthetic β-defensin deduced from B. jararacussu gene, GenBank KC117165] | – | – | – | – | – | – | – | – | – | >111 µM | >111 µM | >111 µM | >111 µM |
| CSCC[C@H](NC(=O)[C@H](CCC(N)=O)NC(=O)[C@@H](N)CO)C(=O)NCC(=O)N[C@@H](CCCNC(=N)N)C(=O)N[C@@H](CCSC)C(=O)N[C@@H](CO)C(=O)N[C@@H](CO)C(=O)N[C@@H](CCCNC(=N)N)C(=O)N[C@@H](CCCNC(=N)N)C(=O)N[C@@H](CCCNC(=N)N)C(=O)N[C@@H](Cc1ccccc1)C(=O)NCC(=O)N[C@@H](CCCCN)C(=O)O [PS2] (H-SQMGRMSSRRRFGK-OH) | >415 µM | >415 µM | 26.1 µM (≈ 44 µg/mL) | 415 µM (≈ 699 µg/mL) | 415 µM (≈ 699 µg/mL) | >250 µM | >250 µM | >250 µM | >250 µM | – | – | – | – |
| QDLCHNLGGRCFRNRCSWSLRNHGGQDCPWGSVCCKP [DefbTs, synthetic β-defensin deduced from T. strigatus gene, GenBank KX664429] | – | – | – | – | – | – | – | – | – | >122 µM | 15.3 µM | >122 µM | >122 µM |
| QRRCRQRRGICRPRPCPPENFSLGRLDCQMGRMCCRRRFGK [DefbBm02, synthetic β-defensin deduced from B. mattogrossensis gene, GenBank KC117167] | – | – | – | – | – | – | – | – | – | 1.6 µM | 0.8 µM | 12.8 µM | 3.2 µM |
| QPQCRWLDGFCHSSPCPSGTTSIGQQDCLWYESCCIPRYEK [Crotasin, synthetic β-defensin deduced from C. durissus gene, GenBank AF250212] | – | – | – | – | – | – | – | – | – | >108 µM | >108 µM | >108 µM | >108 µM |
| Crotamine | – | – | – | – | – | – | – | – | – | 6.7 µM | 1.7 µM | >105 µM | 13.3 µM |
| QRRCRQRRGICRPRPCPPENFSLGRLDCQMGQMCCRRRFGK [DefbBm03, synthetic β-defensin deduced from B. mattogrossensis gene, GenBank KC117168] | – | – | – | – | – | – | – | – | – | 3.2 µM | 1.6 µM | >103 µM | 1.6 µM |
| DPVTCLKSGAICHPVFCPRRYKQIGTCGLPGTKCCKKP [hBd02, synthetic human β-defensin, GenBank AF071216, reference compound] | – | – | – | – | – | – | – | – | – | >124 µM | 2 µM | >124 µM | 15.6 µM |
| QGQCHQQRGRCFLHQCPLSHYFLGRLDCGPGRRCCRRRK [DefbLm02, synthetic β-defensin deduced from L. muta gene, GenBank KC117172] | – | – | – | – | – | – | – | – | – | 3.4 µM | 0.9 µM | 6.8 µM | 3.4 µM |
| N=C(N)NCCC[C@H](NC(=O)[C@H](Cc1c[nH]c2ccccc12)NC(=O)[C@H](CCCNC(=N)N)NC(=O)[C@@H](N)CO)C(=O)N[C@@H](Cc1c[nH]c2ccccc12)C(=O)N[C@@H](CCCCN)C(=O)N[C@@H](CO)C(=O)O [PS6] (H-SRWRWKS-OH) | >697 µM | – | 43.8 µM (≈ 44 µg/mL) | 349 µM (≈ 351 µg/mL) | 697 µM (≈ 701 µg/mL) | >250 µM | >250 µM | >250 µM | >250 µM | – | – | – | – |
